Results: patent US20200010479A1, “INHIBITORS OF MICROBIAL BETA-GLUCURONIDASE ENZYMES AND USES THEREOF” (THE UNIVERSITY OF NORTH CAROLINA AT CHAPEL HILL, priority 2017, published 2020)
“Also recorded” adds a separate entry of the source. Read-outs that look alike come from different tables or passages of the source.

What was measured:
[1] = test system: Loop 2 (L2) enzyme from Bacteroides uniformis; assay: SN-38-G processing by purified GUS enzymes, with inhibitors; type: biochemical; conditions: in vitro
[2] = molecular target: C. perfringens GUS (Clostridium perfringens, UniProt Q8XP19); type: biochemical
[3] = molecular target: T1, Mini-Loop 1 (mL1) GUS from Bacteroides fragilis (Bacteroides fragilis, UniProt Q5LIC7); type: biochemical; conditions: purified mL1 enzyme, in vitro
T1 construct: made in house

[4] = test system: SUM149 cells; assay: SUM149 triple negative breast cancer xenograft in athymic nude mice
[5] = test system: gut microbiota; assay: 16S rRNA metataxonomic analysis of luminal contents, athymic Sum149 xenograft mice; type: in vivo
Description: A metataxonomic analysis was performed of the luminal contents of athymic mice bearing Sum149 triple-negative breast cancer xenograft tumors by sequencing the V3-V4 region of the bacterial 16s rRNA gene. […] Gut microbial diversity is associated with animal and human health, while reduced diversity is associated with disease in both model organisms and humans (REFs). Thus, Inh9 blunts the negative effects of irinotecan on gut microbial diversity in athymic tumor xenograft mice, and is capable of increases species richness in these animals.
At the phylum level, the lumenal contents of vehicle-treated mice contained 50% Bacteroidetes, 42% Firmicutes, and 4% Proteobacteria (FIG. 22B). […] Thus, in immune-deficient mice, Inh9 markedly protects gut microbial composition in athymic mice, increasing diversity and reducing irinotecan-induced increases in Proteobacteria.

[6] = test system: gut microbial GUS proteins; assay: SN-38-G processing by in fimo samples (enzyme mixtures from intestinal contents); type: biochemical, naïve FVB mice
Text: To examine the activity of a more relevant sample of gut microbial GUS proteins, intestinal contents from naïve FVB mice in SPF conditions were obtained. […] As used herein, the ex vivo intestinal samples examined scientifically are to be termed “in fimo” from “fimus”, used by […] and in formal Latin to mean “excrement”. […] FIGS. 14A and 14B). […] FIGS. 14A and 14B).

[7] = test system: C3-Tag mammary tumors; assay: C3-Tag genetically engineered mouse model (GEMM) of triple-negative breast cancer; conditions: for number of tumors observed in the animals: between treatment groups
[8] = test system: murine intestinal epithelium; assay: Time-course of gut damage after a single treatment in FVB mice; type: in vivo, female FVB mice
Description: It has been previously reported that irinotecan induces apoptosis and reduces the number of mitotic structures in the rat intestinal epithelium (Takasuna 1996). To assess whether Inh9 impacts cell proliferation in the murine intestinal epithelium, we undertook two time-course studies. Four groups of age-, weight- and litter-matched female FVB mice were treated with a single treatment of vehicle, Inh9 (1 mg/kg p.o.), irinotecan (50 mg/kg i.p.) or irinotecan and Inh9. One set of animals were euthanized after 24 hours, and a second set after 120 hours. To assess overall effects on the animals, changes in body weight, spleen mass and hematocrit were measured. In the GI tract, levels of apoptotic cells and proliferative cells were measured and epithelial samples were examined by H&E staining.
Thus, at five days, Inh9 appears to protect this measure of animal health. […] As such, the protection afforded at 24 hours by Inh9 is sufficient to improve subsequent gut epithelial outcomes in mice several days after administration.

[9] = molecular target: T2, E. coli GUS (Escherichia coli, UniProt P05804); assay: In vitro EcGUS inhibition, cleavage of PNPG by purified E. coli GUS; type: biochemical; conditions: PNPG substrate, 37° C., 2 hours
Description: To assess GUS inhibition, cleavage of p-nitrophenyl-β-D-glucuronide (PNPG) by purified E. coli GUS in the presence of inhibitor was measured. The reaction was performed in 96-well clear-bottom plates at a volume of 50 μL. Each reaction contained 5 μL of 100 nM E. coli GUS, 5 μL of inhibitor at various concentrations, 10 μL of 250 mM HEPES and 250 mM NaCl assay buffer, and 30 μL of 1.5 mM PNPG. The reaction was initiated by addition of PNPG and incubated at 37° C. for 2 hours. End point absorbance values at 410 nm were measured using a PHERAstar Plus microplate reader. The resulting data were fit with a four-parameter logistic log function in SigmaPlot 13.0 to determine IC50 values. IC50 was defined as the concentration of inhibitor that yields a 50% reduction in product formation at equilibrium.

[10] = test system: gut microbial enzymes; assay: SN-38-G reactivation in fimo samples after treatment of FVB mice; type: in vivo; conditions: for effects on SN-38-G reactivation by in fimo samples: samples collected at 120 hours; for SN-38-G processing activity in the mouse cecum (in fimo samples): single agent, samples collected after 24 hours
Description: The FVB mice were treated with irinotecan, the Inh9, or both irinotecan and Inh9, and it was determined how these treatments affected SN-38-G reactivation in fimo samples collected after 24 hours. […] A similar study was conducted in which samples were collected at 120 hours; at this five-day timepoint, no difference was found between the four treatment groups (data not shown).

[11] = test system: panel of purified GUS enzymes present in the human gut microbiota; assay: SN-38-G processing by panel of purified GUS enzymes, with inhibitors; type: biochemical; conditions: comparison of inhibitors over the panel
[12] = molecular target: T3, S. agalactiae GUS (Streptococcus agalactiae serotype V, UniProt Q8E0N2); type: biochemical; conditions: purified L1 enzyme, in vitro
T3 construct: made in house

[13] = test system: E. eligens GUS; assay: SN-38-G processing by purified GUS enzymes, with inhibitors; type: biochemical, Eubacterium eligens; conditions: purified L1 enzyme, in vitro
[14] = test system: gut microbiota; assay: Gut microbiota composition in C3Tag GEMM animals; type: in vivo, C3Tag GEMM mice; conditions: for composition of the gut microbiota: mice with intact immune system
Text: Finally, we examined the effects of irinotecan and GUS inhibitor on the composition of the gut microbiota in […] triple-negative breast cancer GEMM animals. […] While the vehicle and Inh9 treatment groups appeared similar by PCoA1 analysis, both the irinotecan and IRI+Inh9 groups were similar to each other and distinct from the non-irinotecan mice (FIG. 22C). However, unlike the xenograft mice, irinotecan induces much smaller changes in the composition of the gut microbiota in these GEMM animals. […] These changes were not as dramatic as those observed with the athymic Sum149 xenograft mice presented above. […] In these GEMM animals, though, no change in Enterobacteriaceae or other Gammaproteobacteria families was observed; thus, the taxa that drive the increases in Proteobacteria are not known in these immune-competent mice.

[15] = molecular target: T2, E. coli GUS; type: biochemical; conditions: purified L1 enzyme, in vitro
[16] = therapeutically-relevant doses; cited from earlier work
[17] = test system: C3-Tag mammary tumors; conditions: mouse, in vivo
[18] = test system: gut microbial GUS enzymes; conditions: irinotecan alone; cited from earlier work
[19] = test system: SUM149 cells; conditions: athymic nude, mouse, in vivo, 5 days
[20] = irinotecan and Inh9 vs irinotecan alone
[21] = Inh9 co-treatment with irinotecan, 24 hours
[22] = irinotecan plus Inh9 vs irinotecan alone, 120 hours

T2 sequence (P05804 whole entry): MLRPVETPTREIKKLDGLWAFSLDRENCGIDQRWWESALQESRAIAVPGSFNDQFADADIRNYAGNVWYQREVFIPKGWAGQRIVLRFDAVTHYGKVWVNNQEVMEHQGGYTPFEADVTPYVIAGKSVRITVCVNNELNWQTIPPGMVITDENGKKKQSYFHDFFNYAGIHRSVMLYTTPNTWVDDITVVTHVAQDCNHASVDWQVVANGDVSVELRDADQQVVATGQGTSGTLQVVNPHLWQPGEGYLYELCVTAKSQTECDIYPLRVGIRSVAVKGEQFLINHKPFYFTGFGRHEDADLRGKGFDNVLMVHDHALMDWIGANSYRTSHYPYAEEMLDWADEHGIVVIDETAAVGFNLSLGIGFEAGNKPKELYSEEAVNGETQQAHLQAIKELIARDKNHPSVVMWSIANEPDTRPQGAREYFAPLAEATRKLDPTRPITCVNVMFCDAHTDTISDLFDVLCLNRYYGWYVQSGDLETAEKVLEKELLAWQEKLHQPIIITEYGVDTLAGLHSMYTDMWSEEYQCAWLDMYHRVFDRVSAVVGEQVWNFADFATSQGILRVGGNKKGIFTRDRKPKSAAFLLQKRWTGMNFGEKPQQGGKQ
Sequence of C. perfringens GUS (Q8XP19 whole entry, looked up): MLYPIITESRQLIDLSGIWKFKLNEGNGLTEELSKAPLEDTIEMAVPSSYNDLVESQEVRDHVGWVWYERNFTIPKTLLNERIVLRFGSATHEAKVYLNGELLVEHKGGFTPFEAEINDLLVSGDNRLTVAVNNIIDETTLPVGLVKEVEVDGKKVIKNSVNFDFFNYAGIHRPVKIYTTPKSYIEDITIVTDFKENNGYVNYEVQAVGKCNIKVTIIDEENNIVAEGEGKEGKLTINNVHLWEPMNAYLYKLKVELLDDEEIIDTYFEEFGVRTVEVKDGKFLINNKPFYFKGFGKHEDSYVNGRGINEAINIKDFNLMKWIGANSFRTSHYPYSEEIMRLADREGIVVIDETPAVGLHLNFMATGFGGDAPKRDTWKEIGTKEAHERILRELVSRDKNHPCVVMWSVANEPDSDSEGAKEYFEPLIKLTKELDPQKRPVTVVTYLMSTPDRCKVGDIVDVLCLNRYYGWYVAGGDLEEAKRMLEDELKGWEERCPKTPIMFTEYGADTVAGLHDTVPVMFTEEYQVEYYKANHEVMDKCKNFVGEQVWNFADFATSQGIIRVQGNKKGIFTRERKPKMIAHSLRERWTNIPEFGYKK
T3 sequence (Q8E0N2 whole entry): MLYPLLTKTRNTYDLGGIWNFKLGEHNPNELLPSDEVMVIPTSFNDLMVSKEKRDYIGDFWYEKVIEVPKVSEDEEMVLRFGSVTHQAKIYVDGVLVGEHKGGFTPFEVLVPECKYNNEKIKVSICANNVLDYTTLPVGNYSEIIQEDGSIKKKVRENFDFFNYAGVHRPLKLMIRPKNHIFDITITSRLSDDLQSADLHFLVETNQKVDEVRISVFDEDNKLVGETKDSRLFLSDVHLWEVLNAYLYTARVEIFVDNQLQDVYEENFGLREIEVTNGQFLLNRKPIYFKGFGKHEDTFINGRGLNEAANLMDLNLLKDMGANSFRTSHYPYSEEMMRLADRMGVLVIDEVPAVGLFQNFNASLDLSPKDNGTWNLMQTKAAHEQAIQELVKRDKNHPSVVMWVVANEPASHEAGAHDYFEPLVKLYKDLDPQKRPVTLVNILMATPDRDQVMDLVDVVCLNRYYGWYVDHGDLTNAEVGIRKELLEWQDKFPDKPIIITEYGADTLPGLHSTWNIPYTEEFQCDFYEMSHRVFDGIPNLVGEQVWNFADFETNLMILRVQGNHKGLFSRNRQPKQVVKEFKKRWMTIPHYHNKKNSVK
T1 sequence (Q5LIC7 whole entry): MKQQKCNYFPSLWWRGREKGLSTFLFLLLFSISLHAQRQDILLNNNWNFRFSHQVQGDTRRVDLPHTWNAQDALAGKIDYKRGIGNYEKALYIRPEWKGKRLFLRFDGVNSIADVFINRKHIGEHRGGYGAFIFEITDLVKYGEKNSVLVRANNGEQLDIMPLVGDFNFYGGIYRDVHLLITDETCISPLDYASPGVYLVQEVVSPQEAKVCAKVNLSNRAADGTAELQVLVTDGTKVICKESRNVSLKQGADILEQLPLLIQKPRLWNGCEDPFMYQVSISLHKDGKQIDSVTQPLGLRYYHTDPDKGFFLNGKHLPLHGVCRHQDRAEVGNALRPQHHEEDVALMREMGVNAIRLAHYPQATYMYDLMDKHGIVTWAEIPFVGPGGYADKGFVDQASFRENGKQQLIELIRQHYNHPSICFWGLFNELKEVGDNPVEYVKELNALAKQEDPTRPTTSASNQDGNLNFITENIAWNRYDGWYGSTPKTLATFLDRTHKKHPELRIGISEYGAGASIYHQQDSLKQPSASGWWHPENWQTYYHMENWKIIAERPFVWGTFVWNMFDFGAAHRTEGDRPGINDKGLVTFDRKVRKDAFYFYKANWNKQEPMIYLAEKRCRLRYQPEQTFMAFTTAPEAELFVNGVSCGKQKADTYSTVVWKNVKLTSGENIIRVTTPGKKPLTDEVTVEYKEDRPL

C1CCc2c(c(N3CCOCC3)nc3sc4c(N5CCNCC5)nnnc4c23)C1 [Inh9]
inhibition of SN-38-G processing [1]: did not inhibit
inhibition of SN-38-G processing (apparent kcat) [2]: efficiently reduced
inhibition of SN-38-G processing [3]: did not inhibit
post-sacrifice colon histological examination ([4]; Inh9 with irinotecan): marked protection
diarrhea [4, 20]: significantly less diarrhea
irinotecan-induced weight loss / body weight [4, 20]: significant improvement; also recorded: significantly protected
survival [4, 20]: slightly improved overall survival; also recorded: trended toward living longer
terminal tumor masses ([4]; irinotecan-plus-Inh9): significantly reduced
tumor volumes ([4]; irinotecan-plus-Inh9 compared to vehicle and Inh9 cohorts): significantly reduced
reduction of the levels of Proteobacteria compared to vehicle ([5]; GUS inhibitor alone): more than 10 fold
species diversity, Chao1 richness ([5]; IRI+Inh9): maintained species diversity
Bacteroidetes in lumenal contents, phylum level ([5]; irinotecan and Inh9): 42%
Firmicutes in lumenal contents, phylum level ([5]; irinotecan and Inh9): 43%
Proteobacteria in lumenal contents, phylum level ([5]; irinotecan and Inh9): 13%
Proteobacteria in lumenal contents, phylum level ([5]; single agent): 0.3%
species diversity, Chao1 richness ([5]; single agent): uniformly maximized species richness
SN-38-G reactivation by cecal contents ([6]; Inh9 at 50 and 100 μM): dose-dependent; also recorded: significantly reduce
reducing SN-38-G processing in fimo ([6]; cecum, proximal and distal colon samples, comparison of inhibitors): superior to Inh1
colon tissue, H&E staining ([7]; IRI+Inh9): maintained a properly assembled colonic glandular structure
day to which the study could continue ([7]; IRI+Inh9): 49 days
primary tumor as share of body weight ([7]; IRI+Inh9): below 1%
primary tumor mass upon sacrifice ([7]; IRI+Inh9): less than 100 mg
time some animals remained diarrhea-free ([7]; IRI+Inh9): 42 days
body weight over the course of the study ([7]; IRI+Inh9, after the first 21 days): rebounded and recovered their lost weight
survival longer than IRI (Kaplan-Meier) ([7]; IRI+Inh9 vs IRI): 43%
number of doses of irinotecan received ([7]; IRI+Inh9 vs IRI alone): significantly higher number of IRI doses; also recorded: more doses of irinotecan
survival longer than Veh and Inh9 (Kaplan-Meier) ([7]; IRI+Inh9 vs Veh and Inh9): 29%
diarrhea ([7]; IRI+Inh9 vs irinotecan alone): significantly reduced diarrhea
diarrhea ([7]; Inh9 alone): did not develop diarrhea
time followed until tumor size necessitated euthanasia ([7]; Inh9 alone (as vehicle)): 70 to 80 days
extension of overall survival of irinotecan-treated mice ([7]; Inh9 co-treatment): 14 days
number of tumors observed in the animals [7]: did not differ
tumor volumes measured during the study ([7]; irinotecan plus GUS inhibition): significantly smaller tumors
body weight over the course of the study ([7]; single agent): gained weight
colon tissue, H&E staining ([7]; single agent): healthy colonic histology
primary tumor as share of body weight ([7]; single agent): more than 5%
primary tumor mass upon sacrifice ([7]; single agent): 1.5 g
tumor volumes measured during the study ([7]; single agent): reduced tumor volumes
tumor number and relative mass (FIG. 9) ([7]; with Inh9): significant reduction
acute toxicity after single IRI injection [8, 21]: modestly reduces
apoptotic cells per crypt [8, 21]: modest protection
apoptotic cells per crypt ([8]; Inh9 co-treatment with irinotecan, 120 hours): modest protection
numbers of proliferative cells in the GI tract (BrdU) ([8]; between treatment groups, 24 hours): no change
number of proliferative cells per crypt in ileum, proximal colon and distal colon ([8]; co-treatment of irinotecan with Inh9, 120 hours): significantly increased
body weight or spleen mass [8, 22]: no changes
hematocrit [8, 22]: significant increase
IC50 [9]: 380 nM
level of SN-38-G reactivation by in fimo samples ([10]; Inh9 plus irinotecan compared to irinotecan alone, 24 hours): significantly reduced
effects on SN-38-G reactivation by in fimo samples [10]: no longer detected
SN-38-G processing activity in the mouse cecum (in fimo samples) [10]: did not alter
inhibiting GUS-mediated reactivation of SN-38-G in vitro [11]: superior to Inh1
inhibition of SN-38-G processing (apparent kcat) [12]: efficiently reduced
inhibition of SN-38-G processing (apparent kcat) [13]: efficiently reduced
composition of the gut microbiota [14]: does not change
inhibition of SN-38-G processing (apparent kcat) [15]: efficiently reduced

CCc1c2c(nc3ccc(OC(=O)N4CCC(N5CCCCC5)CC4)cc13)-c1cc3c(c(=O)n1C2)COC(=O)[C@]3(O)CC [irinotecan, (S)-4,11-diethyl-3,4,12,14-tetrahydro-4-hydroxy-3,14-dioxo1H-pyrano[3′,4′:6,7]-indolizino[1,2-b]quinolin-9-yl-[1,4′bipiperidine]-1′-carboxylate, reference compound]
patients who develop diarrhea of all grades [16]: 88%
patients with life-threatening grade 3-4 diarrhea [16]: 30%
time within which all animals developed diarrhea ([17]; female, C3-Tag (strain of origin FVB/N)): ≤ 14 days
body weight over the course of the study [17]: consistently lost weight
colon tissue, H&E staining [17]: almost completely destroyed glandular structure
time to lethal intestinal toxicity [18]: ≤ 10 days
time to early-onset diarrhea ([4]; both irinotecan treatment groups): ≤ 12 h
time until the entire cohort required euthanasia ([4]; irinotecan alone, following the first treatment): 10 days
post-sacrifice colon histological examination ([4]; single agent): dramatic irinotecan-induced epithelial damage
terminal tumor masses ([4]; single agent): significantly reduced
increase in the levels of Proteobacteria ([5]; irinotecan, athymic xenograft mice): ten-fold increase
Bacteroidetes in lumenal contents, phylum level ([5]; single agent): 35%
Firmicutes in lumenal contents, phylum level ([5]; single agent): 16%
Proteobacteria in lumenal contents, phylum level ([5]; single agent): 46%
species diversity, Chao1 richness ([5]; single agent): significant drop
number of tumors observed in the animals [7]: did not differ
time until euthanasia was required for all animals ([7]; irinotecan alone, after the initiation of therapy): 28 days
primary tumor as share of body weight ([7]; single agent): 3%
primary tumor mass upon sacrifice ([7]; single agent): ~1 g
time to apoptotic crypt damage in the murine small intestine ([8]; irinotecan): ≤ 24 h
spleen mass ([8]; single IRI injection, five days): unchanged
body mass ([8]; single IRI injection, over five days): modest body mass reduction
proliferative (BrdU+) cells per crypt in ileum, proximal colon and distal colon ([8]; single agent compared to vehicle or Inh9, 120 hours): significantly decreased
mice that developed late-onset, delayed diarrhea [19]: 50%
effects on SN-38-G reactivation by in fimo samples [10]: no longer detected
SN-38-G processing activity in the mouse cecum (in fimo samples) [10]: significantly increased
Proteobacteria and Gammaproteobacteria, Verrucomicrobia and Verrocumicrobiae levels ([14]; irinotecan alone or in combination with GUS inhibitor vs no irinotecan): significant increases
composition of the gut microbiota [14]: sole driver of changes
